Source: ChEMBL document CHEMBL5380853, “Lead Optimization of Androgen Receptor-HSP27 Disrupting Agents in Glioblastoma” (J Med Chem, 2023)
Calls of active or inactive are those of the source. No cut-off for these calls is given here.

Legend:
U-87 MG = experiment: Growth inhibition of AR-overexpressing human U87 cells measured after 48 hrs by MTT assay; assay type: functional, cell-based, U-87MG ATCC
T98G [1] = experiment: Growth inhibition of AR-overexpressing human T98G cells measured after 48 hrs by MTT assay; assay type: functional, cell-based
T98G [2] = experiment: Down regulation of androgen receptor activity in AR-overexpressing human T98G cells at 100 nM measured after 12 hrs by Western blotting analysis; assay type: functional, cell-based
[3] = Apparent half life in mouse plasma at 20 mg/kg, ip measured for 24 hrs by LC-MS/MS analysis; assay type: ADME, organism-based; details: plasma

IC50 (U-87 MG)	half-life [3]	Structure (SMILES)	IC50 (T98G [1])	Activity (T98G [2])
> 10000 nM		COc1ccc(OC)c(COc2cc(NC(=O)c3ccc(N(C)C)cc3)ccc2NS(C)(=O)=O)c1	1910 nM	
92 nM		COc1ccc(OC)c(COc2cc(NC(=O)c3ccc(SC)cc3)ccc2NS(C)(=O)=O)c1	29 nM	Active
2880 nM		COc1ccc(OC)c(COc2cc(NC(=O)c3ccc(C#N)cc3)ccc2NS(C)(=O)=O)c1	790 nM	
> 10000 nM		COc1ccc(OC)c(COc2cc(NC(=O)c3cccc(Cl)c3)ccc2NS(C)(=O)=O)c1	65 nM	
> 10000 nM		COc1ccc(OC)c(COc2cc(NC(=O)c3ccc([N+](=O)[O-])cc3)ccc2NS(C)(=O)=O)c1	1190 nM	Active
46 nM		COc1ccc(OC)c(COc2cc(NC(=O)c3ccc(I)cc3)ccc2NS(C)(=O)=O)c1	48 nM	
208 nM		COc1ccc(OC)c(COc2cc(NC(=O)c3ccc(Cl)cc3)ccc2NS(C)(=O)=O)c1	77 nM	
2490 nM		COc1ccc(OC)c(COc2cc(NC(=O)c3ccc(OC(F)(F)F)cc3)ccc2NS(C)(=O)=O)c1	899 nM	Active
530 nM		COc1ccc(OC)c(COc2cc(NC(=O)c3cccc(Br)c3)ccc2NS(C)(=O)=O)c1	2670 nM	Active
	1.5 h	COc1ccc(C(=O)Nc2ccc(NS(C)(=O)=O)c(OCc3cc(OC)ccc3OC)c2)cc1		
1870 nM		CCc1ccc(C(=O)Nc2ccc(NS(C)(=O)=O)c(OCc3cc(OC)ccc3OC)c2)cc1	3850 nM	
155 nM		COc1ccc(OC)c(COc2cc(NC(=O)c3ccc(Br)cc3)ccc2NS(C)(=O)=O)c1	148 nM	
476 nM		COc1ccc(OC)c(COc2cc(NC(=O)c3ccc(Cl)c(Cl)c3)ccc2NS(C)(=O)=O)c1	2380 nM	
2060 nM		COc1ccc(OC)c(COc2cc(NC(=O)c3ccc(N)cc3)ccc2NS(C)(=O)=O)c1	3610 nM	
91 nM		COc1ccc(OC)c(COc2cc(NC(=O)c3ccc(C)cc3)ccc2NS(C)(=O)=O)c1	213 nM	
> 10000 nM		COc1ccc(OC)c(COc2cc(NC(=O)c3cccc(C)c3)ccc2NS(C)(=O)=O)c1	422 nM	
210 nM		COc1ccc(OC)c(COc2cc(NC(=O)c3cccc(I)c3)ccc2NS(C)(=O)=O)c1	130 nM	
2080 nM		COc1ccc(OC)c(COc2cc(NC(=O)c3ccc(C(F)(F)F)cc3)ccc2NS(C)(=O)=O)c1	> 10000 nM	

The next lines start with the compound.

Structure (SMILES)	IC50 (U-87 MG)	half-life [3]	IC50 (T98G [1])	Activity (T98G [2])
COc1ccc(OC)c(COc2cc(NC(=O)c3ccc(C(F)(F)F)c(F)c3)ccc2NS(C)(=O)=O)c1	1500 nM		4770 nM	
COc1ccc(OC)c(COc2cc(NC(=O)c3ccc(OC)c(OC)c3)ccc2NS(C)(=O)=O)c1	220 nM		90 nM	
CCOc1cccc(C(=O)Nc2ccc(NS(C)(=O)=O)c(OCc3cc(OC)ccc3OC)c2)c1	3830 nM		38.4 nM	
COc1ccc(OC)c(COc2cc(NC(=O)c3ccc(C)c([N+](=O)[O-])c3)ccc2NS(C)(=O)=O)c1	2630 nM		3690 nM	
CCCCCC(=O)Nc1ccc(NS(C)(=O)=O)c(OCc2cc(OC)ccc2OC)c1	2040 nM		1190 nM	
COc1ccc(OC)c(COc2cc(NC(=O)OCCOC(=O)Nc3ccc(NS(C)(=O)=O)c(OCc4cc(OC)ccc4OC)c3)ccc2NS(C)(=O)=O)c1	5230 nM		2280 nM	
COc1ccc(OC)c(COc2cc(NC(=O)CCCC(=O)Nc3ccc(NS(C)(=O)=O)c(OCc4cc(OC)ccc4OC)c3)ccc2NS(C)(=O)=O)c1	> 10000 nM		> 10000 nM	Active
COc1ccc(OC)c(COc2cc(NC(=O)c3cc(OC)c(OC)c(OC)c3)ccc2NS(C)(=O)=O)c1	3370 nM		218 nM	
COc1ccc(OC)c(COc2cc(NC(=O)c3ccc(-c4ccccc4)cc3)ccc2NS(C)(=O)=O)c1	6910 nM		455 nM	
COc1ccc(OC)c(COc2cc(NC(=O)c3cc(C(F)(F)F)cc(C(F)(F)F)c3)ccc2NS(C)(=O)=O)c1	2650 nM		1040 nM	
COc1ccc(OC)c(COc2cc(NC(=O)c3ccc(Cl)c([N+](=O)[O-])c3)ccc2NS(C)(=O)=O)c1	> 10000 nM		570 nM	
COc1cccc(C(=O)Nc2ccc(NS(C)(=O)=O)c(OCc3cc(OC)ccc3OC)c2)c1	8310 nM		220 nM	
COc1ccc(OC)c(COc2cc(NC(=O)c3cc(Cl)cc(Cl)c3)ccc2NS(C)(=O)=O)c1	150 nM		97 nM	
COc1ccc(OC)c(COc2cc(NC(=O)c3cccc([N+](=O)[O-])c3)ccc2NS(C)(=O)=O)c1	2040 nM		5070 nM	
COc1ccc(OC)c(COc2cc(NC(=O)c3ccc(NC(=O)COCC(=O)Nc4ccc(C(=O)Nc5ccc(NS(C)(=O)=O)c(OCc6cc(OC)ccc6OC)c5)cc4)cc3)ccc2NS(C)(=O)=O)c1	> 10000 nM		> 10000 nM	
COc1ccc(OC)c(COc2cc(NC(=O)c3cccc(C#N)c3)ccc2NS(C)(=O)=O)c1	1890 nM		5030 nM	
COc1ccc(OC)c(COc2cc(NC(=O)c3ccc(C(F)(F)F)cc3C(F)(F)F)ccc2NS(C)(=O)=O)c1	1710 nM		2360 nM	
COc1ccc(OC)c(COc2cc(NC(=O)OCCOCCOCCOC(=O)Nc3ccc(NS(C)(=O)=O)c(OCc4cc(OC)ccc4OC)c3)ccc2NS(C)(=O)=O)c1	> 10000 nM		5470 nM	
COc1ccc(OC)c(COc2cc(NC(=O)c3ccno3)ccc2NS(C)(=O)=O)c1	> 10000 nM		3960 nM	Active
COc1ccc(OC)c(COc2cc(NC(=O)COCC(=O)Nc3ccc(NS(C)(=O)=O)c(OCc4cc(OC)ccc4OC)c3)ccc2NS(C)(=O)=O)c1	> 10000 nM		> 10000 nM	
COc1ccc(OC)c(COc2cc(NC(=O)c3ccccc3C)ccc2NS(C)(=O)=O)c1	1190 nM		306 nM	Active
COc1ccc(OC)c(COc2cc(NC(=O)c3cccs3)ccc2NS(C)(=O)=O)c1	> 10000 nM		3430 nM	Active
COc1ccc(OC)c(COc2cc(NC(=O)c3cccc(C(F)(F)F)c3)ccc2NS(C)(=O)=O)c1	998 nM		423 nM	
